How the values were obtained:
Assay in all cases: relative viability (nuclei count vs DMSO), 5 days (fraction); higher = more cells survive
Sulindac + Linsitinib = compound: CC1=C(CC(=O)O)c2cc(F)ccc2/C1=C\c1ccc([S+](C)[O-])cc1 [Sulindac] + C[C@]1(O)C[C@@H](c2nc(-c3ccc4ccc(-c5ccccc5)nc4c3)c3c(N)nccn32)C1 [Linsitinib] (partner 1 µM)
Method in brief: (§1)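 Lung cancer cell lines in 1536-well plates were dosed by pin tool the day after seeding, either with one drug alone or with a fixed anchor-drug dose plus five library-drug doses (not always all listed) in √10 steps. After 5 days, cells were fixed and their nuclei stained in one step (final 0.05% Triton X-100, 1% formaldehyde, 1 ug/ml Hoechst), then counted on 4× images. Relative viability is the nuclei count in treated wells divided by that in vehicle wells. Values are medians of duplicate plates.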

[1] = compound: CN[C@@H]1C[C@H]2O[C@@](C)([C@@H]1OC)n1c3ccccc3c3c4c(c5c6ccccc6n2c5c31)C(=O)NC4 [Staurosporine] + CC1(C)CCC(c2ccc(Cl)cc2)=C(CN2CCN(c3ccc(C(=O)NS(=O)(=O)c4ccc(N[C@H](CCN5CCOCC5)CSc5ccccc5)c(S(=O)(=O)C(F)(F)F)c4)cc3)CC2)C1 [Navitoclax] (partner 0.5 µM)
Method in brief: as §1

[2] = compound: O=c1[nH]cc(F)c(=O)[nH]1 [5-Fluorouracil] + COc1cc2c(Oc3ccc(NC(=O)C4(C(=O)Nc5ccc(F)cc5)CC4)cc3F)ccnc2cc1OCCCN1CCOCC1 [Foretinib] (partner 0.25 µM)
Method in brief: as §1

[3] = compound: O=c1[nH]cc(F)c(=O)[nH]1 [5-Fluorouracil] + Cc1nc(NC(=O)N2CCC[C@H]2C(N)=O)sc1-c1ccnc(C(C)(C)C(F)(F)F)c1 [Alpelisib] (partner 2 µM)
Method in brief: as §1

Cell Line	relative viability (Sulindac + Linsitinib; first compound 0.08 µM)	relative viability (Sulindac + Linsitinib; first compound 0.253 µM)	relative viability (Sulindac + Linsitinib; first compound 0.8 µM)	relative viability (Sulindac + Linsitinib; first compound 8 µM)	relative viability ([1]; first compound 0.005 µM)	relative viability ([1]; first compound 0.01581 µM)	relative viability ([1]; first compound 0.05 µM)	relative viability ([1]; first compound 0.1581 µM)	relative viability ([1]; first compound 0.5 µM)	relative viability ([2]; first compound 0.02 µM)	relative viability ([2]; first compound 0.2 µM)	relative viability ([2]; first compound 0.6325 µM)	relative viability ([2]; first compound 2 µM)	relative viability ([3]; first compound 0.02 µM)	relative viability ([3]; first compound 0.2 µM)	relative viability ([3]; first compound 0.6325 µM)	relative viability ([3]; first compound 2 µM)	relative viability (Sulindac + Linsitinib; first compound 2.53 µM)
LCLC-97TM1	0.187	0.167	0.157	0.209	0.732	0.283	0.286	0.31	0.223	0.941	0.989	0.941	0.671	0.205	0.224	0.208	0.161	–
NCI-H1793	0.856	0.77	0.471	1.12	0.573	0.238	0.326	0.23	0.264	0.683	0.674	0.57	0.406	0.673	0.658	0.543	0.493	1.12
NCI-H322M	1.01	1.01	0.747	1.05	1.36	1.15	0.771	0.586	0.462	0.976	0.84	0.749	0.446	0.772	0.785	0.609	0.5	0.951
RERF-LC-KJ	0.922	0.948	0.738	0.895	1.14	0.665	0.479	0.244	0.236	0.901	0.938	0.831	0.823	0.764	0.836	0.852	0.62	0.895

Reference: the supplement of paper PMC10307832
